Data as given in the NIST ThermoML archive (doi:10.1021/je030196t).

Tests used:
[1] = xn = mol fraction of the nth substance listed; details: 101.3 kPa, Liquid
[2] = refractive index (Na D-line) (dimensionless); xn = mol fraction of the nth substance listed; details: 303.15 K, 101.3 kPa, Liquid
[3] = 101.3 kPa, Liquid
[4] = refractive index (Na D-line) (dimensionless); details: 303.15 K; 101.33 kPa; Liquid

O [water] + C1CCOC1
[1], x1 = 1
Details	mass density [kg/m3]	viscosity [mPa·s]
303.15 K	–	0.754
313.15 K	991.91	0.624
323.15 K	985.7	0.544

Details	refractive index
[2], x1 = 1	1.3326

C1CCOC1 [tetrahydrofuran] + O
[1]
Details	mass density, 303.15 K [kg/m3]	mass density, 313.15 K [kg/m3]	mass density, 323.15 K [kg/m3]	viscosity, 303.15 K [mPa·s]	viscosity, 313.15 K [mPa·s]	viscosity, 323.15 K [mPa·s]
x2 = 0	876.6	865.65	854.3	0.463	0.4	0.372
x2 = 0.3081	894.98	884.04	872.9	0.574	0.519	0.34
x2 = 0.5004	912.11	901.53	890.7	0.793	0.668	0.578
x2 = 0.6319	927.1	916.82	901.63	1.001	0.833	0.698
x2 = 0.7276	941.82	931.96	921.9	1.208	0.98	0.807
x2 = 0.8002	955.23	945.99	936.5	1.344	1.061	0.868
x2 = 0.8573	966.73	958.34	949.3	1.384	1.084	0.871
x2 = 0.9034	977.2	969.74	962.2	1.341	1.021	0.829
x2 = 0.9413	984.94	–	972.7	1.226	0.92	0.74
x2 = 0.973	990.31	990.31	980.8	1.003	0.803	0.641

[2]
Details	refractive index
x2 = 0	1.4048
x2 = 0.3523	1.3994
x2 = 0.5503	1.3946
x2 = 0.6772	1.387
x2 = 0.7654	1.3786
x2 = 0.8304	1.3684
x2 = 0.8801	1.3613
x2 = 0.9195	1.3546
x2 = 0.9514	1.3405
x2 = 0.9778	1.3386

C1COCCO1 [1,4-dioxane] + O
mass density [kg/m3], [1]
Details	x2 = 0	x2 = 0.3523	x2 = 0.5503	x2 = 0.6772	x2 = 0.7654	x2 = 0.8304	x2 = 0.8801	x2 = 0.9195	x2 = 0.9514	x2 = 0.9778
303.15 K	1024.63	1029.1	1032.4	1033.83	1033.22	1030.5	1025.6	1019.51	1012.1	1004.1
313.15 K	1013.3	1018.5	1022.6	1024.7	1024.7	1022.7	1018.7	1013.4	1006.9	999.8
323.15 K	1001.9	1007.8	1012.5	1015.2	1015.9	1014.6	1011.4	1006.9	1001.3	994.9

[2]
Details	refractive index
x2 = 0	1.4181
x2 = 0.3523	1.4116
x2 = 0.5503	1.4046
x2 = 0.6772	1.3972
x2 = 0.7654	1.391
x2 = 0.8304	1.3865
x2 = 0.8801	1.3798
x2 = 0.9195	1.3698
x2 = 0.9514	1.3517
x2 = 0.9778	1.3417

O [water] + C1COCCO1
Details	mass density [kg/m3]
[1], 313.15 K, x1 = 1	992.3

Details	refractive index
[2], x1 = 1	1.3326

C1COCCO1 [1,4-dioxane]
[3]
Details	mass density [kg/m3]	viscosity [mPa·s]
303.15 K	1024.63	1.022
313.15 K	1013.3	0.871
323.15 K	1001.9	0.807

Details	refractive index
[4]	1.4181

C1CCOC1 [tetrahydrofuran]
[3]
Details	mass density [kg/m3]	viscosity [mPa·s]
303.15 K	876.6	0.463
313.15 K	865.65	0.4
323.15 K	854.3	0.372

Details	refractive index
[4]	1.4048
